{
  "source": "patent US20190262371A1",
  "about": "“METHODS AND COMPOSITION FOR THE TREATMENT OF RNA VIRAL INFECTIONS” (The Regents of the University of California, priority 2016, published 2019)",
  "system": "ZIKV (MR766)",
  "assay": "Inhibitor activity analysis: effect of methyltransferase inhibitors on ZIKV replication in a microglial cell line (supernatant one-step qRT-PCR)",
  "format": "cell-based, ZIKA virus",
  "settings": "assay not given, presumably ZIKV inhibition, 10 μM, MOI 1, 24 h / 48 h, normalized to DMSO",
  "protocol": "FIG. 7. Microglial cell-line was plated 1×10^6 cells per well in 24 well plate and cultured for 24 h. Cell were then treated in triplicate with series of methyltransferase inhibitors ([…]) for one hour followed by infection with ZIKV (MR766, MOI: 1) and changed the fresh medium after 2 hrs of ZIKV infection and re-added the drugs. After 24 h of the infection, we collected the supernatant and did one-step qRT-PCR. Fold inhibition of ZIKV infection was normalized from DMSO control.\nFIG. 8. Microglial cell-line was plated 1×10^6 cells per well in 24 well plate and cultured for 24 h. […]\nEffects of methyltransferase inhibitors on ZIKV replication was monitored using previously published methods (Dang, J., Tiwari, S. K., Lichinchi, G., Qin, Y., Patil, V. S., Eroshkin, A. M., and Rana, T. M. (2016); Zika Virus Depletes Neural Progenitors in Human Cerebral Organoids through Activation of the Innate Immune Receptor TLR3. Cell Stem Cell 19, 258-265; Lichinchi, G., Zhao, B. S., Wu, Y., Lu, Z., Qin, Y., He, C., and Rana, T. M. (2016). Dynamics of Human and Viral RNA Methylation during Zika Virus Infection. Cell Host Microbe 20, 666-673; Tiwari, S. K., Dang, J., Qin, Y., Lichinchi, G., Bansal, V., and Rana, T. M. (2017), which are incorporated herein in their entirety for all purposes). […]",
  "data": [
    {"smiles": "Nc1ncnc2c1ncn2C1OC(CNCCn2c3ccccc3c3ccccc32)C(O)C1O", "note": "(stereo not shown) [TR-H-08]", "values": [
      {"measurement": "activity (found to be an active compound)", "result": "active"}
    ]}
  ]
}
